Results as given in PubChem BioAssay (NCI).
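Dose response: 5 concentrations. Exposure: 48 h. Format: 96-well plates. Endpoint: linear interpolation; highest concentration if not reached. The concentration for 50% growth inhibition is given as GI50. TGI: concentration producing complete growth inhibition.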

Legend:
Experiment in all cases: inhibition of tumour cell growth, NCI panel, 48 h
LOX IMVI melanoma = test system: LOX IMVI melanoma
NCI-H226 lung = test system: NCI-H226 lung
RXF 393 renal = test system: RXF 393 renal
MALME-3M melanoma = test system: MALME-3M melanoma
CCRF-CEM leukemia = test system: CCRF-CEM leukemia
A498 renal = test system: A498 renal
PC-3 prostate = test system: PC-3 prostate
RPMI-8226 leukemia = test system: RPMI-8226 leukemia
HT29 colon = test system: HT29 colon
HCT-15 colon = test system: HCT-15 colon

SMILES | GI50 (LOX IMVI melanoma) [µM] | TGI (LOX IMVI melanoma) [µM] | GI50 (NCI-H226 lung) [µM] | TGI (NCI-H226 lung) [µM] | GI50 (RXF 393 renal) [µM] | TGI (RXF 393 renal) [µM] | GI50 (MALME-3M melanoma) [µM] | TGI (MALME-3M melanoma) [µM] | GI50 (CCRF-CEM leukemia) [µM] | TGI (CCRF-CEM leukemia) [µM] | GI50 (A498 renal) [µM] | TGI (A498 renal) [µM] | GI50 (PC-3 prostate) [µM] | TGI (PC-3 prostate) [µM] | GI50 (RPMI-8226 leukemia) [µM] | TGI (RPMI-8226 leukemia) [µM] | GI50 (HT29 colon) [µM] | TGI (HT29 colon) [µM] | GI50 (HCT-15 colon) [µM] | TGI (HCT-15 colon) [µM]
O=[N+]([O-])c1ccc(C2CC(c3ccccc3)=Nc3ccccc3S2)cc1 (stereo not given) | 3.68 | > 100 | > 100 | > 100 | > 100 | > 100 | > 100 | > 100 | 4.66 | > 100 | 59.8 | > 100 | 8.2 | > 100 | 2.82 | 8.29 | 7.62 | > 100 | 8.03 | > 100
O=C([O][Hg][CH2]C1OCCOC1[CH2][Hg][O]C(=O)c1ccccc1)c1ccccc1 (stereo not given) | 3.66 | 7.56 | 22.5 | 47.3 | 2.08 | 4.06 | 2.18 | 3.88 | 1.66 | > 23.4 | 20.3 | 34.8 | 6.52 | 14.6 | 7.5 | > 22.6 | 5.77 | 10.6 | 8.95 | 24.9
COc1ccc2c(O)c(/C=C3\N=Nc4ccccc43)oc2c1C[C@@H]1CCNC[C@H]1F | 1.6 | 2.99 | 13 | 31.9 | 1.66 | 3.17 | 3.33 | 22.5 | 2.33 | 6.1 | 11.3 | 25.6 | 3.26 | 15.4 | 7.05 | 30.5 | 2.7 | 11 | 14.2 | 28.9
O=[N+]([O-])c1ccc(C2=Nn3c(nnc3-c3ccc(Cl)cc3)SC2)o1 | – | 12.2 | – | 37.8 | – | 21.6 | – | 12.4 | – | 7.54 | – | 31.3 | – | 18.4 | – | 6.37 | – | 11.1 | – | 5.99
CCCCCCCCCCCCSC1=C(Cl)C(=O)C(OC)=C(OC)C1=O | 0.462 | 5.38 | 5.9 | 28.3 | 4.51 | 23.1 | 0.539 | 14.2 | 1.53 | > 100 | – | 14.1 | 1.18 | 9.09 | 0.239 | 3.7 | 3.22 | 17.5 | 1.69 | 27.8
CCCc1cc(=O)n2c(C(=O)Nc3cccc(C(=O)OCC)c3)c(C(=O)Nc3ccc(F)cc3)sc2n1 | 6.65 | > 140 | 5.83 | 27.7 | 5.3 | 13.4 | 13.1 | 58 | > 140 | > 140 | 8.57 | 32.2 | 45.9 | > 140 | 6.2 | > 140 | 87.9 | > 140 | 125 | > 140
Clc1ccc(Nc2ccnc(N3CCN(c4ccnc5cc(Cl)ccc45)CC3)n2)cc1 | 1.84 | 3.58 | 3.96 | 23.4 | 2.35 | 7.65 | 2.32 | 9.82 | 3.07 | 20.6 | 0.603 | 6.91 | 1.98 | 13.3 | 2.75 | 15.1 | 2.03 | 4.88 | 2.49 | 10
CC(=O)Nc1c(I)c(NC(C)=O)c(I)c(C(=O)O)c1I | > 100 | > 100 | > 100 | > 100 | > 100 | > 100 | > 100 | > 100 | > 100 | > 100 | > 100 | > 100 | > 100 | > 100 | > 100 | > 100 | > 100 | > 100 | > 100 | > 100
COc1cc2c(cc1Cc1cccc(Cl)c1F)c(=O)c(C(=O)O)cn2[C@@H](CO)C(C)C | 2.69 | 10.1 | 5.68 | 23.6 | 4.57 | 16.3 | 5.16 | 18.9 | 3.41 | 14.2 | 2.26 | 14.2 | 2.59 | 9.21 | 3.36 | 12.5 | 2.62 | 5.56 | 3.64 | 14.4
CCN1C(=O)N(CC)C2C1NN=c1s/c(=C\c3ccco3)c(=O)n12 (stereo not given) | 0.653 | > 100 | – | > 100 | 0.558 | > 23.4 | 2.15 | > 100 | 0.368 | > 100 | 0.39 | – | 0.455 | > 100 | 0.438 | > 100 | 0.361 | > 100 | 0.481 | > 100
N=C(N)SCc1c2ccccc2c(CSC(=N)N)c2ccccc12 | 1.4 | 21.9 | 6.44 | 30.6 | 8.22 | 23.7 | 6.85 | 25.2 | 4.7 | 36.1 | 7.42 | 22.9 | 10.3 | 23.9 | 2.56 | 16.8 | 5.94 | 21.9 | 12.4 | 32.4
CCCCCCCCCCCC(=O)N1CCN(C(C)=O)CC1 | 34.4 | > 100 | 27.9 | 77.3 | 15.4 | 33.4 | 26.9 | 52.9 | 18.7 | 40.6 | 62.7 | > 100 | 17.8 | 34.5 | 16.8 | 35.7 | – | – | 40.2 | > 100
